Reference: patent publication US7485653B2, “1,4-dihydropyridine compounds, pharmaceutical compositions, and methods for the treatment of cardiovascular disease” (Gilead Sciences, Inc., priority 2003, dated 2009)

Legend:
α-MyHC protein levels = experiment: Western blotting of α-MyHC protein in NRVM; type: cell-based, rat; settings: NRVM stimulated 3 days; Compound 1 10 nM to 10 μM
Method: FIG. 2 Effect of Compound 1 on α-MyHC protein levels as detected by Western blotting. NRVM are stimulated with Compound 1 at different concentrations for 3 days. Protein extracts are prepared, proteins are separated by SDS-PAGE electrophoresis, transferred to PVDF membrane, and detected with an anti-α-MyHC monoclonal antibody.
As an independent measure of changes in α-MyHC protein levels, NRVM stimulated with Compound 1 were analyzed for α-MyHC protein levels by Western blotting. Protein extracts prepared from NRVM stimulated with a range of concentrations of Compound 1 from 10 nM to 10 μM were separated by SDS-PAGE and transferred to PVDF membrane. Levels of α-MyHC protein were detected by Western blotting using the same anti-α-MyHC monoclonal antibody used in the cytoblot assay. […] This experiment verified that the changes in α-MyHC protein detected in the cytoblot assay were also evident by Western blotting.

[1] = test system: α-myosin heavy chain (α-MyHC) protein levels; experiment: α-MyHC cytoblot assay in neonatal rat ventricular myocytes (NRVM); type: cell-based
Method: FIG. 1 Concentration-dependent effect of Compound 1 on αMyHC protein levels in the cytoblot assay. NRVM are cultured for 3 days in serum-free medium in the presence of differing amounts of Compound 1. At the end of the culture period, NRVM are fixed and analyzed for α-MyHC protein levels using the BA-G5 monoclonal antibody specific for α-MyHC. Results are collected as RLU using a Packard Fusion Plate reader, and normalized to the signal from samples cultured in the absence of compound (control, set to 100%).
Preparation and culture of neonatal rat ventricular myocytes (NRVM) was performed by removing hearts from 1-3 day old rat neonatal pups, along with the atria and lungs. The ventricles were cut into smaller pieces and digested 3 times with collagenase for 20-30 min at 37° C. The myocytes were then separated from other cell types using a Percoll gradient. The myocyte layer was collected, washed 2 times, and plated on tissue culture grade 10 cm Petri dishes for 1-2 hrs. The non-adherent cells (myocytes) were removed and plated in Costar clear view 96 well plates coated with 0.2% gelatin for at least 2 hrs. The gelatin solution was removed, and the myocytes were resuspended in DMEM high glucose media (Mediatech) containing 10% charcoal/dextran treated FBS (Hyclone) and 1% Penicillin-Streptomycin-Glutamine (PSG, Gibco). Ten thousand NRVM were plated per well in a 100 μl volume, and incubated overnight at 37° C. in 5% CO2 in air. The following day, the media was replaced with 100 μl of serum-free DMEM high glucose medium supplemented with PSG and 0.3% Nutridoma-SP (Roche).
Compounds were reconstituted in DMSO at 30 mM, and aliquots were stored at −20° C. A 1:1000 dilution was prepared in serum-free DMEM medium supplemented with PSG and 0.3% Nutridoma, and sonicated for 5 min at room temperature. After sonication, additional 3 fold dilutions were prepared in the same medium. Diluted compound was then added to the NRVM cultures in a volume of 100 μl. […]
For the α-MyHC cytoblot assay, NRVM cultures were analyzed for α-MyHC protein levels after 3 days of incubation. […] Excess antibody was removed with 3 PBS washes, and a chemiluminescent substrate was added (Pierce SuperSignal West Pico Chemiluminscent Substrate) for 5 min before quantitation on a Packard Fusion Plate Reader.
As shown above in Table 1, Compound 1 increased α-MyHC protein levels as determined by an α-MyHC cytoblot assay. […] After 3 days of incubation with NRVM, α-MyHC protein levels were detected in the cytoblot assay and quantitated (FIG. 1). […] An increase in α-MyHC protein levels was first detected beginning at 30 nM, with a maximal response observed at 3 μM. […]

[2] = test system: Hypertrophy of NRVM (secretion of atrial natriuretic factor); experiment: Anti-hypertrophic activity in NRVM, ANF ELISA (ANF secretion); type: cell-based; settings: Rattus norvegicus, read-out: IC50 of the ANF ELISA (antihypertrophic activity)
Method: Anti-hypertrophic Activity of Racemic Compound 1 and the Purified Enantiomers of Compound 1. Neonatal rat ventricular myocytes (NRVM) were isolated from 1 to 3 day-old Sprague-Dawley rats using enzymatic digestion and myocyte enrichment techniques. NRVM were cultured in serum-containing media for 18 hours. For the continuation of culture, serum-free media was used. Hypertrophy of NRVM was induced using pharmacological stimuli, including phenylephrine, endothelin-1, and […]. Hypertrophic responses were determined using methods including the following: measurement of total cellular protein; secretion of atrial natriuretic factor; determination of cell volume; determination of the expression of so-called fetal genes such as atrial natriuretic factor, beta-myosin heavy chain and alpha-skeletal actin. ANF secretion was the most sensitive assay for measuring hypertrophy, and the IC50 of the ANF ELISA was the measurement used to determine antihypertrophic activity.

CC(=O)C1=C(C)NC(SCC(=O)c2cccc([N+](=O)[O-])c2)=C(C#N)C1c1ccccc1Cl (racemic) [Compound 1]
α-MyHC protein levels by Western blotting (α-MyHC protein levels): increasing amounts of α-MyHC protein were observed with increasing amounts of Compound 1 | % increase of a-MyHC over baseline at 10 mM Cpd ([1]; 3 days incubation): 206% | concentration at which an increase in α-MyHC protein levels was first detected ([1]; 3 days, tested 3 nM to 30 μM): 30 nM | concentration of maximal response (α-MyHC protein levels) ([1]; 3 days, tested 3 nM to 30 μM): 3 µM | EC50 ([1]; Rattus norvegicus, Ventricular myocyte, 72 h, 3 days, average of six independent experiments, read-out: concentration that gave a half-maximal response (α-MyHC protein levels)): 60 nM | IC50 [2]: 427 nM
